Results as given in PMC10644327, “A randomized, double‐blind phase 1b study evaluating the safety, tolerability, pharmacokinetics and pharmacodynamics of the NLRP3 inhibitor selnoflast in patients with moderate to severe active ulcerative colitis” (Clinical and Translational Medicine, 2023).
≈ marks a conversion by molar mass, not a printed value. Like-named read-outs stand apart in the source and are kept apart here.

Assays:
[1] = Selnoflast plasma pharmacokinetics in UC patients (LC‐MS/MS, non‐compartmental); format: in vivo, human; conditions: for Tmax / concentration at 24 h / Cmax / half-life / AUC: 450 mg; for concentration at 24 h: read-out: Ctrough
Protocol: Selnoflast (450 mg QD or matching placebo) was administered orally in the morning following an overnight fast of at least 8 h during the patients’ 7‐day clinic stay. Water intake was restricted for 1 h pre‐dose and 1 h post‐dose, and no food was allowed until at least 4 h post‐dose.
The concentrations of selnoflast were determined in a total of 260 human plasma samples (obtained during the study) using a validated liquid chromatography‐tandem mass spectrometry (LC‐MS/MS) method. Sample analysis was performed after the addition of the internal standard by protein precipitation followed by LC‐MS/MS. The calibration range was between 40.0 ng/mL and 40000.0 ng/mL; the lower limit of quantification in human plasma was 40.0 ng/mL. Study samples were analyzed within the validated frozen storage stability timeframe of 371 days at −20°C and −70°C, the five validated freeze/thaw cycles, and proven room temperature storage stability of 24 h, in a total of six analytical runs. Five out of six runs met the acceptance criteria. The precision and accuracy (expressed as %RE) of the assay, as determined from the analysis of quality control samples, was satisfactory throughout the study.
All randomized patients were included in the intent‑to‑treat population. All patients completed all doses of study treatment and all were included in the safety, PK and PD analyses. Safety data were grouped according to treatment received and were tabulated and/or listed, as appropriate. PK parameters (including Tmax, Cmax, Ctrough, total exposure, drug accumulation, clearance, volume of distribution and T1/2) were extrapolated directly from the plasma concentration‐versus‐time profiles or calculated using standard non‐compartmental methods. PK and PD parameters were summarized and presented descriptively.

[2] = system: IL‐1β release in whole blood; test: Inhibition of IL‐1β release in whole blood upon ex vivo stimulation with LPS (TruCulture), UC patients; parameters: species or system human; conditions: for Inhibition of IL‐1β release compared to baseline: 450 mg
Protocol: (§1) Blood samples were drawn pre‐dose and at various timepoints and placed in TruCulture whole blood collection and culture tubes that were pre‐filled with lipopolysaccharide (LPS) (final working concentration of 100 ng/mL LPS after addition of 1 mL of blood to the LPS‐containing Truculture tubes). Following 24 h incubation, TruCulture supernatants were collected, stored, and levels of secreted IL‐1β were subsequently measured in order to understand how these responded to NLRP3 inhibition by selnoflast. The levels of IL‐1β were also quantified in plasma K2EDTA samples using the same SIMOA IL‐1β Assay Kit (Quanterix). The quantitative range of the method was 0.196 to 490 pg/mL for plasma and 4.01 to 1470 pg/mL in Truculture supernatants. Plasma samples were also assessed for IL‐18, using a commercial SIMOA IL‐18 Assay Kit (Quanterix; the quantitative range for plasma was 0.0200–45.0 pg/mL).

IL‐18 = test: Plasma IL‐18 (SIMOA) in UC patients; format: in vivo, human; conditions: 450 mg QD, 7 days
Protocol: as §1

sigmoid colon tissue = test: Histology of sigmoid colon biopsies (Geboes score, Nancy index, neutrophils); format: in vivo, human
Protocol: (§2) Tissue biopsies from the sigmoid colon were obtained before start of treatment (up to Day −3) and at the end of treatment (Day 7). For operational reasons, biopsies were taken 2−4.5 h post‐dose on Day 7. Stool samples were obtained at screening, before start of treatment, throughout the study, and at the 14‐day follow‐up visit. Levels of calprotectin were determined in stool samples. Sigmoid colon tissue was processed for RNA and DNA extraction as well as for single‐cell analysis, subsequent transcriptomic analysis, and identification of PD biomarkers. Sigmoid colon tissue samples were also processed for histology (hematoxylin and eosin staining, immunohistochemistry, fluorescence in situ hybridization) in order to characterize the cell types present (i.e., neutrophils and inflammatory monocytes). Histological analysis was performed on sigmoid colon tissue samples (from baseline and Day 7) using the disease‐specific histological indices Geboes score[23] and Nancy index.[24] Caspase‐1 (pro and active form) was assessed using a validated WES‐assay (manuscript in preparation).

calprotectin = test: Stool calprotectin in UC patients; format: in vivo, human; conditions: Day 7, mean (± SD), selnoflast arm; results called uninterpretable (8/19 baseline samples not per protocol)
Protocol: as §2

IL‐1β = IL‐1β IC90 calculated from in vitro studies; format: cell-based; conditions: estimated
[3] = system: IL‐1β release in activated human monocyte‐derived macrophages; parameters: method as in unpublished results; conditions: in vitro, ref unpublished results; cited from earlier work
NLRC4 = system: NLRC4; parameters: method as in unpublished results; conditions: ref unpublished results; cited from earlier work
NLRP3 inflammasome = system: NLRP3 inflammasome; parameters: method as in RO7486967 Investigator Brochure; conditions: ref RO7486967 Investigator Brochure; cited from earlier work
[4] = system: IL‐1β release in ex vivo stimulated whole blood; parameters: method as in unpublished results, study IZD334-001; conditions: healthy subjects, 450 mg QD, ref unpublished results, study IZD334-001, cited from earlier work
[5] = cited from earlier work; for Tolerability: healthy subjects, single doses 20-600 mg and multiple doses up to 450 mg QD for 7 days, ref unpublished results, study IZD334-001
[6] = parameters: method as in Investigator Brochure; conditions: ref Investigator Brochure, cited from earlier work
P-glycoprotein (P-gP) = system: P-glycoprotein (P-gP); parameters: method as in Investigator Brochure; conditions: in vitro studies; ref Investigator Brochure; cited from earlier work
[7] = system: Breast Cancer Resistance Protein (BCRP); parameters: method as in Investigator Brochure; conditions: in vitro studies; ref Investigator Brochure; cited from earlier work
[8] = 450 mg QD repeat dosing, UC patients
[9] = human, plasma, po, 450 mg QD oral, fasted, UC patients N = 13, Day 1, geometric mean (CV% geo mean)
[10] = human, plasma, po, 450 mg QD oral, fasted, UC patients N = 13, steady‐state (Day 5), geometric mean (CV% geo mean)

## CCN1CCC(S(=O)(=O)NC(=O)Nc2c3c(cc4c2CCC4)CCC3)CC1 [Selnoflast, selnoflast]
[1]; 450 mg QD oral, fasted, UC patients N = 13, Day 1 (Clast, 24 h), geometric mean (CV% geo mean)
  Ctrough: 2.55 (38.8) μg/mL
[1]; 450 mg QD oral, fasted, UC patients N = 13, Day 1, geometric mean (CV% geo mean)
  CL/F: 1.82 (17.5) L/h
[1]; 450 mg QD oral, fasted, UC patients N = 13, steady‐state (Day 5) (Clast, 24 h), geometric mean (CV% geo mean)
  Ctrough: 2.66 (46.6) μg/mL
[1]; 450 mg QD oral, fasted, UC patients N = 13, steady‐state (Day 5), geometric mean (CV% geo mean)
  CL/F: 1.68 (21.0) L/h
[1]; [8]
  Accumulation: increase in AUCtau from Day 1 to Day 5: 8.6%
  Accumulation: increase in Clast from Day 1 to Day 5: 4.3%
  Accumulation: increase in Cmax from Day 1 to Day 5: 17%
[1]; 450 mg QD, UC patients
  Steady‐state achieved: Day 2
[1]; human, plasma, oral, UC patients in the present study, read-out: Median Tmax
  Tmax: 1 to 2 h
[1]; human, plasma, po, 450 mg QD oral, fasted, UC patients N = 13, Day 1 (Clast, 24 h), geometric mean (CV% geo mean)
  concentration at 24 h: 2550 ng/mL
[1]; [9]
  Cmax: 25000 ng/mL
  half-life: 6.9 h
[1]; human, plasma, po, 450 mg QD oral, fasted, UC patients N = 13, Day 1, geometric mean (CV% geo mean), read-out: AUC0‐inf
  AUC: 275 µg·h/mL
[1]; human, plasma, po, 450 mg QD oral, fasted, UC patients N = 13, Day 1, geometric mean (CV% geo mean), read-out: AUCtau
  AUC: 247 µg·h/mL
[1]; human, plasma, po, 450 mg QD oral, fasted, UC patients N = 13, Day 1, median (range), read-out: Tmax
  Tmax: 1.97 h
[1]; human, plasma, po, 450 mg QD oral, fasted, UC patients N = 13, steady‐state (Day 5) (Clast, 24 h), geometric mean (CV% geo mean)
  concentration at 24 h: 2660 ng/mL
[1]; [10]
  Cmax: 29300 ng/mL
  half-life: 6.93 h
[1]; human, plasma, po, 450 mg QD oral, fasted, UC patients N = 13, steady‐state (Day 5), geometric mean (CV% geo mean), read-out: AUCtau
  AUC: 268 µg·h/mL
[1]; human, plasma, po, 450 mg QD oral, fasted, UC patients N = 13, steady‐state (Day 5), median (range), read-out: Tmax
  Tmax: 1 h
[1]; human, plasma, 450 mg QD oral, fasted, UC patients N = 13, Day 1, geometric mean (CV% geo mean), read-out: Vz/F
  Vd/F: 18.1 L
[2]; Day 1, from 30 min until at least 10 h post‐dose, mean (± SD)
  Inhibition of IL‐1β release compared to baseline: > 95%
[2]; Homo sapiens, at trough (25–100 h post‐dose), 450 mg QD, read-out: Inhibition of IL‐1β release compared to baseline
  inhibition at 450 mg: ~90%
[2]; just before the next administration on Day 2, mean (SD)
  Inhibition of IL‐1β release compared to baseline: 91.2%
IL‐18
  Change in plasma IL‐18 levels upon treatment: no significant changes
Sigmoid colon tissue; baseline and Day 7
  Geboes score and Nancy index, difference between study arms: No notable differences
Sigmoid colon tissue; mean (± SD), active treatment arm, Day 7
  Neutrophils in sigmoid colon tissue, change from baseline: −13.23 (± 140.76) cells/mm^2
Sigmoid colon tissue; selnoflast‐treated patients, Day 7
  Patients with marked reduction from baseline in neutrophils in sigmoid colon tissue: Three out of the 13
calprotectin
  Stool calprotectin change from baseline: +4146.6 (± 12321.12) μg/g
IL‐1β
  IL‐1β IC90 (tissue): 1.94 µg/g
IL‐1β; read-out: IL‐1β IC90 (plasma)
  IC90: 2 µg/mL (≈ 5.11 µM)
[3]
  Inhibition of IL‐1β release: potent inhibitor
NLRC4
  Inhibitory activity on NLRC4 inflammasome: no inhibitory activity
NLRP3 inflammasome
  Effect on IL-1β release and cell death in vitro: inhibit IL-1β release and cell death in vitro
[4]; over the dosing interval (24 hours)
  Inhibition of IL‐1β release compared to baseline: over 90%
[4]; over the dosing interval (24 hours), listed as RO7486967
  Inhibition of IL‐1β release compared to baseline: 90%
[4]; up to 10 h post‐dose
  Inhibition of IL‐1β release compared to baseline: 99%
[5]; HVs in the Phase I clinical study, ref Investigator Brochure
  Bacterial, viral, fungal, and other opportunistic infections: No evidence
[5]; MAD part, volunteers who received RO7486967, no clear dose dependency, not clinically significant, ref Study IZD334-001
  Healthy volunteers with mild transaminase increase: 4 out of 18
[5]
  Tolerability: well tolerated
[5]; listed as RO7486967
  Tolerability: safe and well tolerated
[6]; 39-week GLP study, monkey
  Signs of hepatotoxicity: no signs of hepatotoxicity
[6]; monkeys, nonclinical toxicology studies
  Bacterial, viral, fungal, and other opportunistic infections: No evidence
P-glycoprotein (P-gP)
  P-gp substrate status: potential substrate
[7]
  BCRP substrate status: potential substrate
